Experimental data as given in paper PMC12557367, ““Precision on Two Wheels”–Structural Refinement of ^64Cu- and ^68Ga-Labeled Bicyclic Peptides Targeting Nectin‑4 for Improved Tumor Imaging: From Preclinical Development to First-in-Human Application” (Journal of Medicinal Chemistry, 2025).
Numbered stars: 1 amine (or outer) side, 2 acyl side, 3 side chain; on linkers, the order of the positions; unused ones are H or OH. Bridge positions count the residues as written; N and C are the ends. Square brackets hold non-standard residues; d marks the D form. Peptide text beside a SMILES is read from it. * marks the point of attachment. DOTA = O=C(O)CN1CCN(CC(=O)O)CCN(CC(=O)*)CCN(CC(=O)O)CC1; TATA = O=C(CC[*:1])N1CN(C(=O)CC[*:2])CN(C(=O)CC[*:3])C1; X1 = O=C(O)CN1CCN(CC(=O)O)CCN([C@H](CCC(=O)*)C(=O)O)CC1; 1Nal = N[C@@H](Cc1cccc2ccccc12)C(=O)O; 2Nal = N[C@@H](Cc1ccc2ccccc2c1)C(=O)O; Hyp = O=C(O)[C@@H]1C[C@@H](O)CN1; hArg = N=C(N)NCCCC[C@H](N)C(=O)O

Experiments:
[1] = Small animal PET/CT imaging; set-up: species or system mice; conditions: mouse, in vivo
Description: (§1) All animal experiments were performed following the protocols evaluated and approved by the Landesdirektion Sachsen, Referat 25 – Veterinärwesen, Lebensmittelüberwachung and Pharmazie (09105 Chemnitz, Germany, ethics approval number: 25-5131/562/52). HT-1376- and 5637-derived tumor xenograft models were established in NMRI nude mice (Rj: NMRI-Foxn1nu/nu, Charles River Laboratories, Sulzfeld, Germany) by subcutaneous injection of 5 × 10^6 cells in 100 μL of PBS containing 50% (v/v) Matrigel (Corning Life Sciences, Amsterdam, The Netherlands).
(§2) When the tumor volume reached 200 mm^3, PET experiments with radiotracers were performed. Radiolabeling of the ligands was performed as described previously with an apparent molar activity of 25 MBq/nmol. The radioligand stock solution (pH 6.5 – 7.5) was diluted in 0.9% NaCl, and 200 μL containing ∼9 MBq ([…]) was injected per mouse intravenously into a lateral tail vein. For blocking of target-specific radioligand binding, 75 nmol of blocking substance (1d) was administered simultaneously with the radioligand. Coincidences were recorded continuously in a 2 h PET-scan starting with the injection. Additionally, a CT scan was performed for anatomical referencing and attenuation correction. PET/CT imaging, reconstruction, and tissue delineation were carried out as described previously.

[2] = test system: HT-1376-derived tumor xenograft model; assay: Small animal PET/CT imaging; set-up: species or system mice; conditions: mouse, in vivo
Description: as §1, §2

[3] = Oxidation stability in H2O2 (radio-HPLC)
Description: To avoid a too rapid degradation of radiolabeled peptides, a low H2O2 concentration of 0.0012% was chosen. […] In this context, there are three further thioether functionalities in each peptide due to the cyclization of the Cys residues with TATA. In Figure , the curves for the time-dependent degradation of the intact radioligands are depicted, from which the respective half-lives were calculated.
The stability toward oxidizing conditions was assessed with H2O2. For this purpose, the radioligands (2 nmol, 48 μL of labeling mixture) were treated with H2O2 (2 μL of 0.03%, final concentration of 0.0012%) at ambient temperature. At distinct time points (3, 5, and 7 h), an aliquot of 2 μL was withdrawn and diluted with 48 μL of a mixture named “Supersol,” which consists of 20% ethanol, 0.5% Triton X-100, 5 mM EDTA, 0.5 mM o-phenanthroline, and 0.1% saponin. […] The resulting solutions were analyzed by radio-HPLC (same system as that used for analyzing the ^64Cu-labelings).

[4] = target: T1, recombinant human nectin-4 (Homo sapiens, UniProt Q96NY8); assay: FA-based competitive binding assay with probe 1a; conditions: competitive binding curve, variable slope
T1 construct: close to the value determined for the complete extracellular domain of nectin-4 (0.94 nM); purchased R&D Systems 2659-N4
T1 sequence (Q96NY8 32-349 limits assumed): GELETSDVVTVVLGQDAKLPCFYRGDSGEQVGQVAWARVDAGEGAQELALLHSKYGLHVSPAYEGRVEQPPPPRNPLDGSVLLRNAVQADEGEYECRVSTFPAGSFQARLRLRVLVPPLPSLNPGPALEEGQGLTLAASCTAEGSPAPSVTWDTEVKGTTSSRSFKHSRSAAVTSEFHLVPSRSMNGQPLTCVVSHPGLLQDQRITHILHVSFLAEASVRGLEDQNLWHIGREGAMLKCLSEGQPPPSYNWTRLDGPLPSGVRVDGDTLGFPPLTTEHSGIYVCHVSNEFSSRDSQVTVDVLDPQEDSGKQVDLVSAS
Description: For the competitive binding assay, a constant concentration of probe 1a (1 nM) and of nectin-4 (20 nM) was used, and the concentration of the competitors was varied over at least 3 orders of magnitude. […] Analysis of the curves by nonlinear regression according to dose–response inhibition with variable slope, as implemented in GraphPad Prism (see Experimental section), provided the IC50 value for displacing the probe from nectin-4.
All measurements were conducted at 37 °C over 1200 s (interval of 37 s) using a Cytation 5 multimode microplate reader (BioTek Instruments, Software Gen 5) and black 96-well microplates (BRANDplates with F-bottom wells). Experiments were conducted at an excitation wavelength of 540 nm and an emission wavelength of 620 nm. The FA (r) was calculated by Gen 5 software from the measured parallel and perpendicular fluorescence intensities (I ∥ and I ⊥, respectively) according to eq using a G factor of 0.87 (preset value). r=I∥−G×I⊥/I∥+2G×I⊥ 1
All further data analyses were conducted with GraphPad Prism (version 10.4.1, GraphPad Software, San Diego, CA, USA). The assay mixture (100 μL) contained an aqueous solution (99 μL) and DMSO (1%, v/v, 1 μL).
For the competitive binding assay, fixed concentrations of probe 1a (1 nM) and recombinant human nectin-4 (20 nM) and 10 concentrations of nonlabeled peptide (e.g., […] prepared as serial 1:1 dilution) were used (two separate experiments, each performed in duplicate). The corresponding stock solutions of 1a (2.5 nM) and nectin-4 (50 nM) were prepared in HEPES buffer, while the stock solutions of the nonlabeled peptides were prepared in 5% DMSO/HEPES buffer. nectin-4 (40 μL) and 1a (40 μL) were added to the wells, and the competition was started by the addition of the nonlabeled peptides (20 μL). The FA values were averaged over the time period of 1200 s, and plots of FA = f([peptide]) were analyzed by nonlinear regression according to the model “[inhibitor] vs. response – Variable slope (four parameters)” as implemented in GraphPad Prism. […] Therefore, the lower FA plateau was constrained to the FA value of probe 1a in the absence of nectin-4 and the competitor, which was recorded in each experiment.

[5] = target: T2, immobilized human nectin-4 (Homo sapiens, UniProt Q96NY8); assay: SPR analysis of binding kinetics
T2 construct: close to the value determined for the complete extracellular domain of nectin-4 (0.94 nM); purchased R&D Systems 2659-N4
T2 sequence (Q96NY8 32-349 limits assumed): T1 sequence (Q96NY8 32-349 limits assumed)

Row | SMILES | half-life ([1]; Blood half life fast [min]) [min] | half-life ([1]; Blood half life slow [min]) [min] | Percent fast [%] [2] [%] | body retention at 2 h p.i. [2] | time of highest tumor uptake [2] | half-life [3] [min] | other results
1 | CSCC[C@@H]1NC(=O)[C@@H]2CSCCC(=O)N3CN(CN(C3)C(=O)CCSC[C@H](NC(=O)CC[C@H](C(=O)O)N3CCN(CC(=O)O)CCN(CC(=O)O)CC3)C(=O)N3CCC[C@H]3C(=O)N[C@@H](Cc3ccc4ccccc4c3)C(=O)N[C@H](CC(=O)O)C(=O)N2)C(=O)CCSC[C@@H](C(N)=O)NC(=O)[C@H](Cc2c[nH]c3ccccc23)NC(=O)[C@@H]2C[C@@H](O)CN2C(=O)[C@@H]2CCCN2C(=O)[C@H]([C@@H](C)O)NC(=O)[C@H](CO)NC(=O)[C@H](Cc2c[nH]c3ccccc23)NC(=O)[C@H](CC(=O)O)NC(=O)[C@H](CCCNC(=N)N)NC1=O [[^64Cu]Cu-8a, metal not drawn] (X1-CP[2Nal][dD]CMRDWSTP[Hyp]WC-NH2; linker 1-5-15 via TATA) | 1.27 ± 0.13 | 35.9 ± 2.08 | 84.87 ±1.35 | 40–42% | ≈ 6 min | 242 | 
2 | CSCC[C@@H]1NC(=O)[C@@H]2CSCCC(=O)N3CN(CN(C3)C(=O)CCSC[C@H](NC(=O)CN3CCN(CC(=O)O)CCN(CC(=O)O)CCN(CC(=O)O)CC3)C(=O)N3CCC[C@H]3C(=O)N[C@@H](Cc3ccc4ccccc4c3)C(=O)N[C@H](CC(=O)O)C(=O)N2)C(=O)CCSC[C@@H](C(N)=O)NC(=O)[C@H](Cc2c[nH]c3ccccc23)NC(=O)[C@@H]2C[C@@H](O)CN2C(=O)[C@@H]2CCCN2C(=O)[C@H]([C@@H](C)O)NC(=O)[C@H](CO)NC(=O)[C@H](Cc2c[nH]c3ccccc23)NC(=O)[C@H](CC(=O)O)NC(=O)[C@H](CCCNC(=N)N)NC1=O [[^68Ga]Ga-8c, metal not drawn] ({DOTA}-CP[2Nal][dD]CMRDWSTP[Hyp]WC-NH2; linker 1-5-15 via TATA) | 1.44 ± 0.19 | 38.8 ± 2.49 | 78.28 ±1.97 | 75% | 8.5 min |  | 
3 | CSCC[C@@H]1NC(=O)[C@@H]2CSCCC(=O)N3CN(CN(C3)C(=O)CCSC[C@H](NC(=O)CN3CCN(CC(=O)O)CCN(CC(=O)O)CCN(CC(=O)O)CC3)C(=O)N3CCC[C@H]3C(=O)N[C@@H](Cc3ccc4ccccc4c3)C(=O)N[C@H](CC(=O)O)C(=O)N2)C(=O)CCSC[C@@H](C(=O)O)NC(=O)[C@H](Cc2c[nH]c3ccccc23)NC(=O)[C@@H]2C[C@@H](O)CN2C(=O)[C@@H]2CCCN2C(=O)[C@H]([C@@H](C)O)NC(=O)[C@H](CO)NC(=O)[C@H](Cc2c[nH]c3ccccc23)NC(=O)[C@H](CC(=O)O)NC(=O)[C@H](CCCNC(=N)N)NC1=O [[^68Ga]Ga-8d, metal not drawn, reference compound] ({DOTA}-CP[2Nal][dD]CMRDWSTP[Hyp]WC-OH; linker 1-5-15 via TATA) | 1.5 ± 0.15 | 37.1 ± 2.19 | 83.87 ±1.35 | 35% | 0.6 min |  | 
4 | CSCC[C@@H]1NC(=O)[C@@H]2CSCCC(=O)N3CN(CN(C3)C(=O)CCSC[C@H](NC(=O)CC[C@H](C(=O)O)N3CCN(CC(=O)O)CCN(CC(=O)O)CC3)C(=O)N3CCC[C@H]3C(=O)N[C@@H](Cc3ccc4ccccc4c3)C(=O)N[C@H](CC(=O)O)C(=O)N2)C(=O)CCSC[C@@H](C(N)=O)NC(=O)[C@H](Cc2c[nH]c3ccccc23)NC(=O)[C@@H]2C[C@@H](O)CN2C(=O)[C@@H]2CCCN2C(=O)[C@H]([C@@H](C)O)NC(=O)[C@H](CO)NC(=O)[C@H](Cc2c[nH]c3ccccc23)NC(=O)[C@H](CC(=O)O)NC(=O)[C@H](CCCCNC(=N)N)NC1=O [compound 9] |  |  |  |  |  |  | Hill coefficient n [4]: 1.57; kon ([5]; HBS-P+ pH 7.4, 25 °C, ±SEM, read-out: k on (SPR, *10^6 M^–1 s^–1)): 1.69e+07 M⁻¹ s⁻¹; fold increase in k off vs 1e ([5]; SPR): 18 fold; koff ([5]; pH 7.4, HBS-P+ pH 7.4, 25 °C, ±SEM, read-out: k off (SPR, *10^–3 s^–1)): 0.0765 s⁻¹
5 | CCSC[C@@H]1NC(=O)[C@@H]2CSCCC(=O)N3CN(CN(C3)C(=O)CCSC[C@H](NC(=O)CC[C@H](C(=O)O)N3CCN(CC(=O)O)CCN(CC(=O)O)CC3)C(=O)N3CCC[C@H]3C(=O)N[C@@H](Cc3cccc4ccccc34)C(=O)N[C@H](CC(=O)O)C(=O)N2)C(=O)CCSC[C@@H](C(N)=O)NC(=O)[C@H](Cc2c[nH]c3ccccc23)NC(=O)[C@@H]2C[C@@H](O)CN2C(=O)[C@@H]2CCCN2C(=O)[C@H]([C@@H](C)O)NC(=O)[C@H](CO)NC(=O)[C@H](Cc2c[nH]c3ccccc23)NC(=O)[C@H](CC(=O)O)NC(=O)[C@H](CCCCNC(=N)N)NC1=O [[^64Cu]Cu-7, metal not drawn] (X1-CP[1Nal][dD]CC(Et)[hArg]DWSTP[Hyp]WC-NH2; linker 1-5-15 via TATA) |  |  |  |  |  |  | half-life ([3]; half-life of intact radiolabeled peptide (T1/2), 0.0012% H2O2, 25 °C, one-phase decay): 529 min
6 | CSCC[C@@H]1NC(=O)[C@@H]2CSCCC(=O)N3CN(CN(C3)C(=O)CCSC[C@H](NC(=O)CC[C@H](C(=O)O)N3CCN(CC(=O)O)CCN(CC(=O)O)CC3)C(=O)N3CCC[C@H]3C(=O)N[C@@H](Cc3cccc4ccccc34)C(=O)N[C@H](CC(=O)O)C(=O)N2)C(=O)CCSC[C@@H](C(N)=O)NC(=O)[C@H](Cc2c[nH]c3ccccc23)NC(=O)[C@@H]2C[C@@H](O)CN2C(=O)[C@@H]2CCCN2C(=O)[C@H]([C@@H](C)O)NC(=O)[C@H](CO)NC(=O)[C@H](Cc2c[nH]c3ccccc23)NC(=O)[C@H](CC(=O)O)NC(=O)[C@H](CCCNC(=N)N)NC1=O [[^64Cu]Cu-10, metal not drawn] (X1-CP[1Nal][dD]CMRDWSTP[Hyp]WC-NH2; linker 1-5-15 via TATA) |  |  |  |  |  | 208 | 
